target: T1, MAGE-A11:PCF11 interaction (GST-MAGE-A11 and FAM-PCF11_4) (Homo sapiens, UniProt P43364); experiment: TR-FRET primary / single point screen at 15 µM; assay type: binding; details: single point TR-FRET screening of 797 quinoline compounds against MAGE-A11:PCF11
T1 construct: GST-MAGE-A11 MHD (human MAGE-A11 MHD amino acid 218-429); made in house; host or cells: E. coli BL21(DE3)
T1 sequence (P43364 218-429): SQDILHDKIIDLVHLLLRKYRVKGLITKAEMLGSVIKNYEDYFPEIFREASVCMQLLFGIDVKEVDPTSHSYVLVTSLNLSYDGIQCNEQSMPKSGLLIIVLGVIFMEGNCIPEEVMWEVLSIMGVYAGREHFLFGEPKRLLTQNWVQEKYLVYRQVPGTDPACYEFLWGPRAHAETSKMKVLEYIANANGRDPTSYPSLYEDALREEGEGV
In short: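 TR-FRET 520/490 nm emission ratio was read after 90 min at room temperature. Wells held 5 nM GST-MAGE-A11, 5 nM Tb-anti-GST, 200 nM FAM-PCF11_4 and 15 µM compound in Tris pH 7.5 buffer with MgCl2, BSA and DTT. %Inhibition was scaled to DMSO and minus-MAGE-A11 controls.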

| Structure (SMILES) | percent inhibition (TR-FRET) |
| --- | --- |
| C#CCOCC(O)CN1CCN(c2cc(C(F)(F)F)nc3ccccc23)CC1 (stereo not drawn) [SJ000228018] | -9.5157 |
| O=S(=O)(c1ccccc1)c1cnc2ccc(Cl)cc2c1N1CCN(Cc2ccccc2)CC1 [SJ000247242] | -30.2832 |
| CCOc1ccc2ncc(C(=O)c3ccc(OC)cc3)c(N3CCN(CC)CC3)c2c1 [SJ000247243] | -9.084 |
| COc1ccc2ncc(C(=O)c3ccccc3)c(N3CCN(C)CC3)c2c1 [SJ000247245] | -2.393 |
| COc1ccc2ncc(S(=O)(=O)c3ccccc3)c(N3CCN(Cc4ccccc4)CC3)c2c1 [SJ000247248] | -71.1577 |
| CCOc1ccc2ncc(S(=O)(=O)c3ccccc3)c(N3CCN(Cc4ccccc4)CC3)c2c1 [SJ000247249] | -15.9076 |
| CCOc1ccc2ncc(C(=O)c3ccc(C)cc3)c(N3CCN(C)CC3)c2c1 [SJ000247254] | -10.6078 |
| Cc1ccc2ncc(S(=O)(=O)c3ccccc3)c(N3CCN(Cc4ccccc4)CC3)c2c1 [SJ000247256] | 2.673 |
| O=S(=O)(c1ccccc1)c1cnc2ccc(F)cc2c1N1CCN(Cc2ccccc2)CC1 [SJ000247257] | -62.2806 |
| Cc1ccc(S(=O)(=O)c2cnc3ccccc3c2N2CCN(C)CC2)cc1 [SJ000247268] | -13.5889 |
| CCOc1ccc2ncc(C(=O)c3ccc(OC)cc3)c(N3CCN(C)CC3)c2c1 [SJ000247277] | -18.955 |
| CCc1ccc2ncc(C(=O)c3ccccc3)c(N3CCN(CC)CC3)c2c1 [SJ000247281] | -2.261 |
| CCN1CCN(c2c(C(=O)c3ccc(C)cc3)cnc3ccc(OC)cc23)CC1 [SJ000247282] | 3.9003 |
| CCOc1ccc2ncc(C(=O)c3ccccc3)c(N3CCN(CC)CC3)c2c1 [SJ000247283] | -0.2733 |
| CCOc1ccc2ncc(C(=O)c3ccc(C)cc3)c(N3CCN(CC)CC3)c2c1 [SJ000247284] | -14.2514 |
| CN1CCN(c2c(S(=O)(=O)c3ccc(Cl)cc3)cnc3ccccc23)CC1 [SJ000247306] | -10.1441 |
| CCc1ccc2ncc(S(=O)(=O)c3ccc(C)c(C)c3)c(N3CCN(C)CC3)c2c1 [SJ000247332] | 2.973 |
| COc1ccc2ncc(S(=O)(=O)c3ccc(C)c(C)c3)c(N3CCN(C)CC3)c2c1 [SJ000247333] | -8.554 |
| CCc1ccc2ncc(S(=O)(=O)c3ccc(C)c(C)c3)c(N3CCN(CC)CC3)c2c1 [SJ000247334] | -4.712 |
| CCN1CCN(c2c(S(=O)(=O)c3ccc(C)c(C)c3)cnc3ccc(OC)cc23)CC1 [SJ000247335] | -4.579 |
| CN1CCN(c2c(C(=O)c3ccccc3)cnc3ccc(Cl)cc23)CC1 [SJ000247338] | -5.573 |
| CCOc1ccc(C(=O)c2cnc3ccc(C)cc3c2N2CCN(CC)CC2)cc1 [SJ000247339] | -10.8066 |
| Cc1ccc(S(=O)(=O)c2cnc3ccc(F)cc3c2N2CCN(C)CC2)cc1C [SJ000247344] | -7.6267 |
| CCN1CCN(c2c(S(=O)(=O)c3ccc(C)c(C)c3)cnc3ccc(F)cc23)CC1 [SJ000247345] | 1.118 |

| Structure (SMILES) | percent inhibition (TR-FRET) |
| --- | --- |
| CCOc1ccc2ncc(S(=O)(=O)c3ccc(C)c(C)c3)c(N3CCN(C)CC3)c2c1 [SJ000247354] | -14.0527 |
| CCOc1ccc2ncc(S(=O)(=O)c3ccc(C)c(C)c3)c(N3CCN(CC)CC3)c2c1 [SJ000247355] | -13.3902 |
| CCN1CCN(c2c(C(=O)c3ccccc3)cnc3ccc(OC)cc23)CC1 [SJ000247365] | -0.2733 |
| CCN1CCN(c2c(S(=O)(=O)c3ccc(Cl)cc3)cnc3ccccc23)CC1 [SJ000247367] | -2.261 |
| CCc1ccc(S(=O)(=O)c2cnc3ccccc3c2N2CCN(C)CC2)cc1 [SJ000278939] | 11.585 |
| CCOC(=O)c1cnc2ccc(OC)cc2c1N1CCN(C)CC1 [SJ000279507] | -2.791 |
| CCOC(=O)c1cnc2ccc(OCC)cc2c1N1CCN(C)CC1 [SJ000279526] | -7.064 |
| CCOC(=O)c1cnc2c(CC)cccc2c1NCCN1CCOCC1 [SJ000279714] | -6.103 |
| CCOC(=O)c1cnc2ccc(C(=O)O)cc2c1N1CCN(CCO)CC1 [SJ000280902] | -0.5958 |
| CCOC(=O)c1cnc2c(C(F)(F)F)cccc2c1NCCN1CCOCC1 [SJ000281260] | 0.8341 |
| CCN(CC)CCCC(C)Nc1ccnc2cc(Cl)ccc12 (stereo not drawn) [SJ000285185] | -2.592 |
| CCN(CC)CCCC(C)Nc1c2ccc(Cl)cc2nc2ccc(OC)cc12 (stereo not drawn) [SJ000285202] | -265.674 |
| CCN(CCO)CCCC(C)Nc1ccnc2cc(Cl)ccc12 (stereo not drawn) [SJ000286026] | 3.702 |
| Clc1ccc2c(NC3CCN(Cc4ccc(Cl)o4)CC3)ccnc2c1 [SJ000311180] | 0.6827 |
| Oc1ccc(Br)cc1CN1CCC(Nc2ccnc3cc(Cl)ccc23)CC1 [SJ000311181] | -1.209 |
| CCCN(CCCCNc1ccnc2cc(Cl)ccc12)Cc1cc(Br)ccc1O [SJ000311196] | 5.724 |
| CCCN(CCCCNc1ccnc2cc(Cl)ccc12)CCCSC [SJ000311197] | 3.903 |
| CCCN(CCCCNc1ccnc2cc(Cl)ccc12)Cc1ccc[nH]1 [SJ000311198] | -0.9977 |
| CCCN(CCCCNc1ccnc2cc(Cl)ccc12)Cc1sccc1C [SJ000311199] | 6.494 |
| CCCN(CCCCNc1ccnc2cc(Cl)ccc12)Cc1ccoc1 [SJ000311200] | 12.3053 |
| CCCN(CCCCNc1ccnc2cc(Cl)ccc12)Cc1cc(F)ccc1OC [SJ000311202] | 5.3962 |
| CCCN(CCCCNc1ccnc2cc(Cl)ccc12)Cc1c(F)cccc1OC [SJ000311203] | 6.844 |
| CCCN(CCCCNc1ccnc2cc(Cl)ccc12)Cc1c[nH]c2ccccc12 [SJ000311204] | -3.378 |
| CCCN(CCCCNc1ccnc2cc(Cl)ccc12)Cc1ccccc1 [SJ000311205] | 7.684 |

same assay, conditions: single point TR-FRET screening of quinoline compounds against MAGE-A11:PCF11; 15 µM

| Structure (SMILES) | percent inhibition (TR-FRET) |
| --- | --- |
| CCOC(=O)c1cnc2c(Cl)cccc2c1NCCCN1CCOCC1 [SJ000279431] | 4.102 |
| CCOC(=O)c1cnc2ccc(OCC)cc2c1NCCCN1CCOCC1 [SJ000279525] | 5.532 |
| CCOC(=O)c1cnc2c(C)cccc2c1NCCCN1CCOCC1 [SJ000279636] | 3.353 |
| CCOC(=O)c1cnc2ccc(C(=O)OC)cc2c1NCCCN1CCOCC1 [SJ000279665] | 10.7073 |
| CCOC(=O)c1cnc2ccc(F)cc2c1NCCCN1CCOCC1 [SJ000279864] | -0.3915 |
| Clc1ccc2c(NCCCN(Cc3ccccc3)CC3CC=CCC3)ccnc2c1 (stereo not drawn) [SJ000311182] | 16.0865 |
| CC(C)CCN(CCCNc1ccnc2cc(Cl)ccc12)Cc1ccccc1 [SJ000311183] | 2.673 |
| CC(CCN(CCCNc1ccnc2cc(Cl)ccc12)Cc1ccccc1)c1ccccc1 (stereo not drawn) [SJ000311184] | 17.3464 |
| Cc1ccsc1CNCCCNc1ccnc2cc(Cl)ccc12 [SJ000311189] | 6.554 |
| Cc1ccc(CNCCCNc2ccnc3cc(Cl)ccc23)s1 [SJ000311190] | 10.8349 |
| CCCN(CCCNc1ccnc2cc(Cl)ccc12)Cc1ccc(Br)o1 [SJ000311195] | 14.4758 |
| c1ccc(Oc2ccc3c(NCCCNCc4ccco4)ccnc3c2)cc1 [SJ000311206] | 14.5885 |
| COc1ccccc1Oc1ccc2c(NCCCNCc3ccco3)ccnc2c1 [SJ000311210] | 24.558 |
| COc1cccc(Oc2ccc3c(NCCCNCc4ccco4)ccnc3c2)c1 [SJ000311214] | 29.109 |
| COc1ccc(Oc2ccc3c(NCCCNCc4ccco4)ccnc3c2)cc1 [SJ000311218] | 36.2507 |
| Fc1ccc(Oc2ccc3c(NCCCNCc4ccco4)ccnc3c2)cc1 [SJ000311222] | 9.365 |
| Clc1ccc(Oc2ccc3c(NCCCNCc4ccco4)ccnc3c2)cc1 [SJ000311226] | 37.651 |
| CN(C)c1cccc(Oc2ccc3c(NCCCNCc4ccco4)ccnc3c2)c1 [SJ000311230] | 63.4168 |
